Values quoted from earlier work as cited in patent US20260240147A1, “MANCOZEB NANOSUSPENSION AND PREPARATION METHOD THEREOF” (priority 2022, published 2026).

In the case of “manganese ethylene bis(dithiocarbamate) polymeric complex with zinc salt coordination compound [mancozeb]”, the “solubility in most organic solvents” value is listed as “insoluble” and the solubility in water (pH 7.5, 25° C.) is listed as 6.2 µg/mL.
